Organism: Mus musculus
Test: Inhibition of nitric oxide production in LPS-activated mouse macrophages at a concentration of 3 uM
Type: functional

SMILES	inhibition at 3 µM
C[C@H](C[C@H](O)[C@H](O)C(C)(C)O)C1=C2C[C@H](O)C3[C@@]4(C)CCC(=O)C(C)(C)C4CC[C@]3(C)[C@@]2(C)CC1 (some centres not stated)	21.4%
COC(=O)C(C)(C)C1CC[C@@]2(C)C3[C@H](CC4=C([C@H](C)C[C@H](OC(C)=O)[C@H]5OC5(C)C)CC[C@@]42C)OC(=O)C[C@@]13C (some centres not stated)	17.2%
CC(=O)O[C@@H](C[C@@H](C)C1=C2[C@H](O)[C@H](O)C3[C@@]4(C)CCC(=O)C(C)(C)C4CC[C@]3(C)[C@@]2(C)CC1)[C@H]1OC1(C)C (some centres not stated)	4%
C[C@H](C[C@H](O)[C@@H](O)C(C)(C)O)C1=C2C[C@H](O)C3[C@@]4(C)CCC(=O)C(C)(C)C4CC[C@]3(C)[C@@]2(C)CC1 (some centres not stated)	21.4%
CC(=O)O[C@H]1C[C@@H](C)C2=C3C[C@H](O)C4[C@@]5(C)CCC(=O)C(C)(C)C5CC[C@]4(C)[C@@]3(C)C[C@@H]2O[C@H]1C(C)(C)O (some centres not stated)	7.5%
C=C(C)[C@H](O)[C@@H](O)C[C@@H](C)C1=C2C[C@H](O)C3[C@@]4(C)CCC(=O)C(C)(C)C4CC[C@]3(C)[C@@]2(C)CC1 (some centres not stated)	21.4%
CC(C)C1=CC2C(CC[C@]2(C)O)/C(=C/S(=O)(=O)O)CC1 (some centres not stated)	14.3%

Organism: Mus musculus
Test: Concentration required for inhibition of nitric oxide production in LPS-activated mouse macrophages
Type: functional

SMILES	IC50
C[C@H](C[C@H](O)[C@H](O)C(C)(C)O)C1=C2C[C@H](O)C3[C@@]4(C)CCC(=O)C(C)(C)C4CC[C@]3(C)[C@@]2(C)CC1 (some centres not stated)	> 10 µM
COC(=O)C(C)(C)C1CC[C@@]2(C)C3[C@H](CC4=C([C@H](C)C[C@H](OC(C)=O)[C@H]5OC5(C)C)CC[C@@]42C)OC(=O)C[C@@]13C (some centres not stated)	10 µM
CC(=O)O[C@@H](C[C@@H](C)C1=C2[C@H](O)[C@H](O)C3[C@@]4(C)CCC(=O)C(C)(C)C4CC[C@]3(C)[C@@]2(C)CC1)[C@H]1OC1(C)C (some centres not stated)	> 10 µM
C[C@H](C[C@H](O)[C@@H](O)C(C)(C)O)C1=C2C[C@H](O)C3[C@@]4(C)CCC(=O)C(C)(C)C4CC[C@]3(C)[C@@]2(C)CC1 (some centres not stated)	> 10 µM
CC(=O)O[C@H]1C[C@@H](C)C2=C3C[C@H](O)C4[C@@]5(C)CCC(=O)C(C)(C)C5CC[C@]4(C)[C@@]3(C)C[C@@H]2O[C@H]1C(C)(C)O (some centres not stated)	36 µM
C=C(C)[C@H](O)[C@@H](O)C[C@@H](C)C1=C2C[C@H](O)C3[C@@]4(C)CCC(=O)C(C)(C)C4CC[C@]3(C)[C@@]2(C)CC1 (some centres not stated)	> 10 µM
CC(C)C1=CC2C(CC[C@]2(C)O)/C(=C/S(=O)(=O)O)CC1 (some centres not stated)	> 100 µM

Organism: Mus musculus
Test: Inhibition of nitric oxide production in LPS-activated mouse macrophages at a concentration of 100 uM
Type: functional

SMILES	inhibition at 100 µM
C[C@H](C[C@H](O)[C@H](O)C(C)(C)O)C1=C2C[C@H](O)C3[C@@]4(C)CCC(=O)C(C)(C)C4CC[C@]3(C)[C@@]2(C)CC1 (some centres not stated)	111%
COC(=O)C(C)(C)C1CC[C@@]2(C)C3[C@H](CC4=C([C@H](C)C[C@H](OC(C)=O)[C@H]5OC5(C)C)CC[C@@]42C)OC(=O)C[C@@]13C (some centres not stated)	110%
CC(=O)O[C@@H](C[C@@H](C)C1=C2[C@H](O)[C@H](O)C3[C@@]4(C)CCC(=O)C(C)(C)C4CC[C@]3(C)[C@@]2(C)CC1)[C@H]1OC1(C)C (some centres not stated)	116%
C[C@H](C[C@H](O)[C@@H](O)C(C)(C)O)C1=C2C[C@H](O)C3[C@@]4(C)CCC(=O)C(C)(C)C4CC[C@]3(C)[C@@]2(C)CC1 (some centres not stated)	114%
CC(=O)O[C@H]1C[C@@H](C)C2=C3C[C@H](O)C4[C@@]5(C)CCC(=O)C(C)(C)C5CC[C@]4(C)[C@@]3(C)C[C@@H]2O[C@H]1C(C)(C)O (some centres not stated)	90.8%
C=C(C)[C@H](O)[C@@H](O)C[C@@H](C)C1=C2C[C@H](O)C3[C@@]4(C)CCC(=O)C(C)(C)C4CC[C@]3(C)[C@@]2(C)CC1 (some centres not stated)	106%
CC(C)C1=CC2C(CC[C@]2(C)O)/C(=C/S(=O)(=O)O)CC1 (some centres not stated)	27.1%

Organism: Mus musculus
Test: Inhibition of nitric oxide production in LPS-activated mouse macrophages at a concentration of 30 uM
Type: functional

SMILES	inhibition at 30 µM
C[C@H](C[C@H](O)[C@H](O)C(C)(C)O)C1=C2C[C@H](O)C3[C@@]4(C)CCC(=O)C(C)(C)C4CC[C@]3(C)[C@@]2(C)CC1 (some centres not stated)	113%
COC(=O)C(C)(C)C1CC[C@@]2(C)C3[C@H](CC4=C([C@H](C)C[C@H](OC(C)=O)[C@H]5OC5(C)C)CC[C@@]42C)OC(=O)C[C@@]13C (some centres not stated)	84.2%
CC(=O)O[C@@H](C[C@@H](C)C1=C2[C@H](O)[C@H](O)C3[C@@]4(C)CCC(=O)C(C)(C)C4CC[C@]3(C)[C@@]2(C)CC1)[C@H]1OC1(C)C (some centres not stated)	117%
C[C@H](C[C@H](O)[C@@H](O)C(C)(C)O)C1=C2C[C@H](O)C3[C@@]4(C)CCC(=O)C(C)(C)C4CC[C@]3(C)[C@@]2(C)CC1 (some centres not stated)	84.2%
CC(=O)O[C@H]1C[C@@H](C)C2=C3C[C@H](O)C4[C@@]5(C)CCC(=O)C(C)(C)C5CC[C@]4(C)[C@@]3(C)C[C@@H]2O[C@H]1C(C)(C)O (some centres not stated)	42.9%
C=C(C)[C@H](O)[C@@H](O)C[C@@H](C)C1=C2C[C@H](O)C3[C@@]4(C)CCC(=O)C(C)(C)C4CC[C@]3(C)[C@@]2(C)CC1 (some centres not stated)	104%
CC(C)C1=CC2C(CC[C@]2(C)O)/C(=C/S(=O)(=O)O)CC1 (some centres not stated)	21.5%

Organism: Mus musculus
Test: Inhibition of nitric oxide production in LPS-activated mouse macrophages at a concentration of 10 uM
Type: functional

SMILES	inhibition at 10 µM
C[C@H](C[C@H](O)[C@H](O)C(C)(C)O)C1=C2C[C@H](O)C3[C@@]4(C)CCC(=O)C(C)(C)C4CC[C@]3(C)[C@@]2(C)CC1 (some centres not stated)	30%
COC(=O)C(C)(C)C1CC[C@@]2(C)C3[C@H](CC4=C([C@H](C)C[C@H](OC(C)=O)[C@H]5OC5(C)C)CC[C@@]42C)OC(=O)C[C@@]13C (some centres not stated)	49.2%
CC(=O)O[C@@H](C[C@@H](C)C1=C2[C@H](O)[C@H](O)C3[C@@]4(C)CCC(=O)C(C)(C)C4CC[C@]3(C)[C@@]2(C)CC1)[C@H]1OC1(C)C (some centres not stated)	32.3%
C[C@H](C[C@H](O)[C@@H](O)C(C)(C)O)C1=C2C[C@H](O)C3[C@@]4(C)CCC(=O)C(C)(C)C4CC[C@]3(C)[C@@]2(C)CC1 (some centres not stated)	26.2%
CC(=O)O[C@H]1C[C@@H](C)C2=C3C[C@H](O)C4[C@@]5(C)CCC(=O)C(C)(C)C5CC[C@]4(C)[C@@]3(C)C[C@@H]2O[C@H]1C(C)(C)O (some centres not stated)	13.5%
C=C(C)[C@H](O)[C@@H](O)C[C@@H](C)C1=C2C[C@H](O)C3[C@@]4(C)CCC(=O)C(C)(C)C4CC[C@]3(C)[C@@]2(C)CC1 (some centres not stated)	29.7%
CC(C)C1=CC2C(CC[C@]2(C)O)/C(=C/S(=O)(=O)O)CC1 (some centres not stated)	11%

Organism: Mus musculus
Test: Inhibition of nitric oxide production in LPS-activated mouse macrophages at a concentration of 1 uM
Type: functional

SMILES	inhibition at 1 µM
C[C@H](C[C@H](O)[C@H](O)C(C)(C)O)C1=C2C[C@H](O)C3[C@@]4(C)CCC(=O)C(C)(C)C4CC[C@]3(C)[C@@]2(C)CC1 (some centres not stated)	5.8%
COC(=O)C(C)(C)C1CC[C@@]2(C)C3[C@H](CC4=C([C@H](C)C[C@H](OC(C)=O)[C@H]5OC5(C)C)CC[C@@]42C)OC(=O)C[C@@]13C (some centres not stated)	-2.6%
CC(=O)O[C@@H](C[C@@H](C)C1=C2[C@H](O)[C@H](O)C3[C@@]4(C)CCC(=O)C(C)(C)C4CC[C@]3(C)[C@@]2(C)CC1)[C@H]1OC1(C)C (some centres not stated)	5.9%
C[C@H](C[C@H](O)[C@@H](O)C(C)(C)O)C1=C2C[C@H](O)C3[C@@]4(C)CCC(=O)C(C)(C)C4CC[C@]3(C)[C@@]2(C)CC1 (some centres not stated)	0.2%
CC(=O)O[C@H]1C[C@@H](C)C2=C3C[C@H](O)C4[C@@]5(C)CCC(=O)C(C)(C)C5CC[C@]4(C)[C@@]3(C)C[C@@H]2O[C@H]1C(C)(C)O (some centres not stated)	-4.5%
C=C(C)[C@H](O)[C@@H](O)C[C@@H](C)C1=C2C[C@H](O)C3[C@@]4(C)CCC(=O)C(C)(C)C4CC[C@]3(C)[C@@]2(C)CC1 (some centres not stated)	8.8%
CC(C)C1=CC2C(CC[C@]2(C)O)/C(=C/S(=O)(=O)O)CC1 (some centres not stated)	8.4%

Source: ChEMBL document CHEMBL1131864, “Effects of sesquiterpenes and triterpenes from the rhizome of Alisma orientale on nitric oxide production in lipopolysaccharide-activated macrophages: absolute stereostructures of alismaketones-B 23-acetate and -C 23-acetate” (Bioorg Med Chem Lett, 1999)
